Source: paper PMC10141580, “Cyclic Dichalcogenides Extend the Reach of Bioreductive Prodrugs to Harness Thiol/Disulfide Oxidoreductases: Applications to seco-Duocarmycins Targeting the Thioredoxin System” (ACS Central Science, 2023)
Where “and” joins values, the source holds several entries; their conditions need not be identical. Equal entries are not always repeated. Where two headings read alike, the source gives them in different places.

Tested on: NCI-60 standardized human tumor cell line panel
Assay: cells
Assay type: cell-based

## COc1cc2cc(C(=O)N3C[C@@H](CCl)c4c3cc(OC(=O)N(CCC(=O)N3CCN(C)CC3)C3CCCCC3)c3ccccc43)[nH]c2c(OC)c1OC [P-CC60-CBI-TMI]
SN12C, read-out: GI50
  GI50: 1200 nM
SNB-19, read-out: GI50
  GI50: 2200 nM
SR, read-out: GI50
  GI50: 280 nM
SW-620, read-out: GI50
  GI50: 1900 nM
T-47D, read-out: GI50
  GI50: 1900 nM
TK-10 (RE) cell line, log10 of GI50 in M
  NCI-60 screening: Log(GI50): -5.55
TK-10 (RE) cell line, read-out: NCI-60 screening: Raw GI50
  GI50: 2800 nM
TK-10, read-out: GI50
  GI50: 2800 nM
U251, read-out: GI50
  GI50: 1500 nM
UACC-62, read-out: GI50
  GI50: 1500 nM
UACC-257, read-out: GI50
  GI50: 2000 nM
Cell line A549/ATCC (LC:A549/ATCC), TMI sheet
  NCI-60 screening: Log(GI50): -5.7
Cell line A549/ATCC (LC:A549/ATCC), TMI sheet, read-out: NCI-60 screening: Raw GI50
  GI50: 2000 nM
Cell line BT-549 (BR:BT-549), TMI sheet
  NCI-60 screening: Log(GI50): -5.8
Cell line BT-549 (BR:BT-549), TMI sheet, read-out: NCI-60 screening: Raw GI50
  GI50: 1600 nM
Cell line CCRF-CEM (LE:CCRF-CEM), TMI sheet
  NCI-60 screening: Log(GI50): -6
Cell line COLO 205 (CO:COLO 205), TMI sheet
  NCI-60 screening: Log(GI50): -5.86
Cell line COLO 205 (CO:COLO 205), TMI sheet, read-out: NCI-60 screening: Raw GI50
  GI50: 1400 nM
Cell line EKVX (LC:EKVX), TMI sheet
  NCI-60 screening: Log(GI50): -5.71
Cell line EKVX (LC:EKVX), TMI sheet, read-out: NCI-60 screening: Raw GI50
  GI50: 1900 nM
Cell line HCC-2998 (CO:HCC-2998), TMI sheet
  NCI-60 screening: Log(GI50): -5.82
Cell line HCC-2998 (CO:HCC-2998), TMI sheet, read-out: NCI-60 screening: Raw GI50
  GI50: 1500 nM
Cell line HCT-15 (CO:HCT-15), TMI sheet
  NCI-60 screening: Log(GI50): -5.76
Cell line HCT-15 (CO:HCT-15), TMI sheet, read-out: NCI-60 screening: Raw GI50
  GI50: 1700 nM
Cell line HCT-116 (CO:HCT-116), TMI sheet
  NCI-60 screening: Log(GI50): -5.82
Cell line HCT-116 (CO:HCT-116), TMI sheet, read-out: NCI-60 screening: Raw GI50
  GI50: 1500 nM
Cell line HL-60(TB) (LE:HL-60(TB)), TMI sheet
  NCI-60 screening: Log(GI50): -6.12
Cell line HOP-62 (LC:HOP-62), TMI sheet
  NCI-60 screening: Log(GI50): -6.23
Cell line HOP-62 (LC:HOP-62), TMI sheet, read-out: NCI-60 screening: Raw GI50
  GI50: 590 nM
Cell line HOP-92 (LC:HOP-92), TMI sheet
  NCI-60 screening: Log(GI50): -5.6
Cell line HT29 (CO:HT29), TMI sheet
  NCI-60 screening: Log(GI50): -5.82
Cell line HT29 (CO:HT29), TMI sheet, read-out: NCI-60 screening: Raw GI50
  GI50: 1500 nM
Cell line K-562 (LE:K-562), TMI sheet
  NCI-60 screening: Log(GI50): -6.17
Cell line KM12 (CO:KM12), TMI sheet
  NCI-60 screening: Log(GI50): -5.68
Cell line KM12 (CO:KM12), TMI sheet, read-out: NCI-60 screening: Raw GI50
  GI50: 2100 nM
Cell line LOX IMVI (ME:LOX IMVI), TMI sheet
  NCI-60 screening: Log(GI50): -5.96
Cell line LOX IMVI (ME:LOX IMVI), TMI sheet, read-out: NCI-60 screening: Raw GI50
  GI50: 1100 nM
Cell line M14 (ME:M14), TMI sheet
  NCI-60 screening: Log(GI50): -5.82
Cell line M14 (ME:M14), TMI sheet, read-out: NCI-60 screening: Raw GI50
  GI50: 1500 nM
Cell line MALME-3M (ME:MALME-3M), TMI sheet
  NCI-60 screening: Log(GI50): -5.8
Cell line MALME-3M (ME:MALME-3M), TMI sheet, read-out: NCI-60 screening: Raw GI50
  GI50: 1600 nM
Cell line MCF7 (BR:MCF7), TMI sheet
  NCI-60 screening: Log(GI50): -6.5
Cell line MDA-MB-435 (ME:MDA-MB-435), TMI sheet
  NCI-60 screening: Log(GI50): -5.75
Cell line MOLT-4 (LE:MOLT-4), TMI sheet
  NCI-60 screening: Log(GI50): -6.23
Cell line MOLT-4 (LE:MOLT-4), TMI sheet, read-out: NCI-60 screening: Raw GI50
  GI50: 590 nM
Cell line NCI-H23 (LC:NCI-H23), TMI sheet
  NCI-60 screening: Log(GI50): -6.33
Cell line NCI-H226 (LC:NCI-H226), TMI sheet
  NCI-60 screening: Log(GI50): -5.84
Cell line NCI-H226 (LC:NCI-H226), TMI sheet, read-out: NCI-60 screening: Raw GI50
  GI50: 1400 nM
Cell line RPMI-8226 (LE:RPMI-8226), TMI sheet
  NCI-60 screening: Log(GI50): -5.83
Cell line RPMI-8226 (LE:RPMI-8226), TMI sheet, read-out: NCI-60 screening: Raw GI50
  GI50: 1500 nM
Cell line SF-268 (CNS:SF-268), TMI sheet
  NCI-60 screening: Log(GI50): -5.81
Cell line SF-268 (CNS:SF-268), TMI sheet, read-out: NCI-60 screening: Raw GI50
  GI50: 1500 nM
Cell line SF-295 (CNS:SF-295), TMI sheet
  NCI-60 screening: Log(GI50): -5.81
Cell line SF-295 (CNS:SF-295), TMI sheet, read-out: NCI-60 screening: Raw GI50
  GI50: 1500 nM
Cell line SF-539 (CNS:SF-539), TMI sheet
  NCI-60 screening: Log(GI50): -5.88
Cell line SK-MEL-5 (ME:SK-MEL-5), TMI sheet
  NCI-60 screening: Log(GI50): -5.79
Cell line SK-MEL-5 (ME:SK-MEL-5), TMI sheet, read-out: NCI-60 screening: Raw GI50
  GI50: 1600 nM
Cell line SK-MEL-28 (ME:SK-MEL-28), TMI sheet
  NCI-60 screening: Log(GI50): -5.45
Cell line SNB-19 (CNS:SNB-19), TMI sheet
  NCI-60 screening: Log(GI50): -5.65
Cell line SNB-19 (CNS:SNB-19), TMI sheet, read-out: NCI-60 screening: Raw GI50
  GI50: 2200 nM
Cell line SR (LE:SR), TMI sheet
  NCI-60 screening: Log(GI50): -6.56
Cell line SW-620 (CO:SW-620), TMI sheet
  NCI-60 screening: Log(GI50): -5.72
Cell line SW-620 (CO:SW-620), TMI sheet, read-out: NCI-60 screening: Raw GI50
  GI50: 1900 nM
Cell line T-47D (BR:T-47D), TMI sheet
  NCI-60 screening: Log(GI50): -5.72
Cell line T-47D (BR:T-47D), TMI sheet, read-out: NCI-60 screening: Raw GI50
  GI50: 1900 nM
Cell line U251 (CNS:U251), TMI sheet
  NCI-60 screening: Log(GI50): -5.82
Cell line U251 (CNS:U251), TMI sheet, read-out: NCI-60 screening: Raw GI50
  GI50: 1500 nM
Cell line UACC-62 (ME:UACC-62), TMI sheet
  NCI-60 screening: Log(GI50): -5.82
Cell line UACC-62 (ME:UACC-62), TMI sheet, read-out: NCI-60 screening: Raw GI50
  GI50: 1500 nM
Cell line UACC-257 (ME:UACC-257), TMI sheet
  NCI-60 screening: Log(GI50): -5.7
Cell line UACC-257 (ME:UACC-257), TMI sheet, read-out: NCI-60 screening: Raw GI50
  GI50: 2000 nM
read-out: GI50
  GI50: 1500 nM and 2400 nM
read-out: NCI-60 screening: Raw GI50
  GI50: 1500 nM
